Source: ChEMBL document CHEMBL1201862, “PubChem BioAssay data set” (2004)
Active and inactive are the calls of the source.

Key:
[1] = cytotoxicity in HPDE-C7 cells, cell-based, fluorescence, HTS (AID 430); type: functional; details: Homo sapiens
[2] = cytotoxicity in KRAS-transformed pancreatic duct cells, primary screen, cell-based, fluorescence, HTS (AID 431); type: functional; details: Homo sapiens;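 further: cell line used: HPDE-C7K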
[3] = target: Estrogen receptor beta (Homo sapiens, UniProt Q92731); assay: ERβ–SRC-3 coactivator interaction inhibitors, confirmation, orthogonal assay, biochemical, ELISA, streptavidin-HRP readout (AID 1060)
[4] = target: Dual specificity protein phosphatase 6 (Rattus norvegicus, UniProt Q64346); assay: MKP-3 phosphatase inhibitors, primary screen, biochemical, rat enzyme, in vitro (AID 425)
[5] = Artemis endonuclease inhibitor potency, dose response, biochemical, fluorescence intensity (AID 720701); type: functional;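 further: Artemis endonuclease enzyme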
[6] = target: Protein Tat (Human immunodeficiency virus type 1 group M subtype B (isolate HXB2)(HIV-1), UniProt P04608); type: functional;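 further: tat binding to TAR RNA read out by fluorescence polarization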
[7] = THP-1 cell cytotoxicity, dose response, cytotoxicity control for Vif-APOBEC3G degradation inhibitor project, THP-1 cells (AID 1117359); type: functional; details: Human immunodeficiency virus 1, THP-1
[8] = inhibitors of Vif binding to APOBEC3G peptide, primary screen, biochemical, TR-FRET, GST-Vif 1-94, biotin-A3G peptide, dose response retest (AID 1117319); type: functional;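 further: TR-FRET signal of purified GST-Vif binding a biotinylated A3G peptide; inhibitors lower the FRET signal by blocking Vif and A3G binding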
[9] = target: T1, E3 ubiquitin-protein ligase XIAP (Homo sapiens, UniProt P98170); assay: Counter Screen using XIAP-Bir3 for Chemical Antagonists of Bir1/2 domains of IAP-family anti-apoptotic proteins. [Related pubchem assays (depositor defined):AID1018, AID1449, AID1514, AID1638, AID1749, AID1750, AID488957, AID488963]
[10] = target: T1, E3 ubiquitin-protein ligase XIAP; assay: XIAP antagonists, biochemical, IAP family, fluorescence polarization (AID 1018); type: functional
[11] = target: Induced myeloid leukemia cell differentiation protein Mcl-1 (Homo sapiens, UniProt Q07820); assay: MCL1-BIM BH3 interaction inhibitors, dose response, biochemical, fluorescence polarization, BIM-BH3 peptide, 1536-well (AID 2217)
[12] = target: Bcl-2-like protein 1 (Homo sapiens, UniProt Q07817); assay: BCL-XL inhibitors, dose response, selectivity assay for MCL1 inhibitor project, biochemical, fluorescence polarization, 1536-well (AID 2218)
[13] = target: T2, Carboxy-terminal domain RNA polymerase II polypeptide A small phosphatase 1 (Homo sapiens, UniProt Q9GZU7); assay: inhibitors of CTDSP1, concentration-response testing, biochemical assay, absorbance-based, actives from ultra-high-throughput screening (AID 540297); type: functional
T2 sequence (Q9GZU7 whole entry): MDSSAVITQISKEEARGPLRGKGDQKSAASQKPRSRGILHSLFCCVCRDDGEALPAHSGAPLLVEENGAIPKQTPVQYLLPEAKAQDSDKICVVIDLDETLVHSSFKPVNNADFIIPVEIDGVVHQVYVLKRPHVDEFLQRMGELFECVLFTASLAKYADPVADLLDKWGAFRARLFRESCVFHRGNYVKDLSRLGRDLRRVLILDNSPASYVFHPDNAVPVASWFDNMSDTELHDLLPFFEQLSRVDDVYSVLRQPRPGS

[14] = target: T3, Caspase-6 (Homo sapiens, UniProt P55212); assay: human caspase-6 inhibitors, dose response, biochemical, VEID-R110 fluorescence, cherry-pick (AID 720632)
T3 sequence (P55212 whole entry): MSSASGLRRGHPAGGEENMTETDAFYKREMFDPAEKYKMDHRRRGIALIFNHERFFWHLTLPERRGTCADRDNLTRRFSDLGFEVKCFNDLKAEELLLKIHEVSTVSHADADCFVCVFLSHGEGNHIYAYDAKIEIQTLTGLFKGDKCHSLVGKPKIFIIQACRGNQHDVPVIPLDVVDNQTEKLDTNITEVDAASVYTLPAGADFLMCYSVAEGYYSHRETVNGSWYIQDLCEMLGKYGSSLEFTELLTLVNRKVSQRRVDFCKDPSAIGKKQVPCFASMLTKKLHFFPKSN

[15] = NIH-3T3 fibroblast cytotoxicity, dose response, cytotoxicity control, cell-based, fluorescence, Alamar Blue, secondary assay (AID 2327); type: functional;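 further: NIH-3T3 mouse fibroblasts cultured with fluconazole at 8 µg/mL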
[16] = luciferase reporter signal reduction – luminescence, H4-C neuroglioblastoma cells, dose response (AID 2458); type: functional, cell-based;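 further: H4 neuroglioblastoma cells stably carrying a luciferase reporter gene fusion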
[17] = cells; type: functional, cell-based
[18] = Luminescence Cell-Based Dose Response HTS to Identify Inhibitors of 5'UTR Stem-Loop Driven Prion Protein mRNA Translation in H4 Neuroglioblastoma Cells. [Related pubchem assays: 1827 (Project Summary), 1813 (Primary HTS)]; type: functional
[19] = system: Vero; assay: host cell cytotoxicity of antiviral hits, dose response, cytotoxicity control for West Nile virus antiviral project, secondary assay (AID 1650); type: functional; details: Chlorocebus sabaeus
[20] = inhibitors of SNCA 5'UTR-driven reporter translation, confirmation, H4 neuroglioma cells, luminescence (AID 1988); type: functional, cell-based
[21] = C. albicans growth with fluconazole, confirmation, fluorescence, retest (AID 2467); type: functional, cell-based
[22] = microbe, parasite or virus in culture; type: functional; details: Mycobacterium tuberculosis
[23] = inhibitors of SNCA 5'UTR-driven translation, confirmation, luminescence, H4 neuroglioblastoma cells, dose confirmation (AID 2454); type: functional, cell-based;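 further: H4 neuroglioblastoma cells carrying an alpha-synuclein 5'UTR luciferase reporter; potency for inhibition of the luciferase signal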
[24] = system: Jurkat; assay: antigen receptor-induced NF-kB inhibitors, dose response, Jurkat, luciferase reporter, luminescence, B- and T-cell (AID 489004); type: functional, cell-based; details: Homo sapiens;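 further: NF-kB luciferase reporter Jurkat cells stimulated with PMA plus ionomycin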
[25] = target: Cyclin-dependent kinase 5/CDK5 activator 1 (Homo sapiens, UniProt Q00535); assay: CDK5/p35 kinase inhibitors, dose response, biochemical, cherry-picked samples, set 2 (AID 504545)
[26] = cytotoxicity in HEK-293T NF-kB-Luc cells, dose response, cytotoxicity control for B/T-cell NF-kB inhibitor project, cell-based, uHTS hits (AID 489019); type: functional;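 further: IC50 reflects cytotoxicity as loss of cell viability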
[27] = system: Vero; assay: cells; type: functional, cell-based; details: Chlorocebus sabaeus
[28] = target: Dual specificity tyrosine-phosphorylation-regulated kinase 1A (Rattus norvegicus, UniProt Q63470); type: biochemical, Homo sapiens
[29] = Shn3 3'UTR reporter inhibitors, dose response, cell-based, Clone20 osteoblasts, firefly luciferase, cherry-picked (AID 624132); type: functional;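 further: firefly luciferase luminescence from reporter carrying the Shn3 3'UTR in osteoblasts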
[30] = control 3'UTR Renilla luciferase suppression, dose response, counter-screen for Shn3 inhibitor project, cell-based, Clone20-Shn3RL, cherry-picked (AID 624133); type: functional
[31] = target: Melanin-concentrating hormone receptor 1 (Homo sapiens, UniProt Q99705); assay: Late-stage fluorescence-based counterscreen for antagonists of the G-protein coupled receptor 7 (GPR7): cell-based dose response assay to identify antagonists of the melanin-concentrating hormone receptor 1 (MCHR1). [Related pubchem assays (depositor defined):AID1861, AID1880, AID1952, AID2148, AID2251, AID2257, AID485339]; type: functional;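 further: stimulated with 30 nM MCH peptide agonist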
[32] = target: T4, Estrogen receptor (Homo sapiens, UniProt P03372); assay: potentiators of ERα–SRC-1 coactivator binding, dose response, biochemical, TR-FRET, ERα LBD (AID 737)
T4 sequence (P03372 whole entry): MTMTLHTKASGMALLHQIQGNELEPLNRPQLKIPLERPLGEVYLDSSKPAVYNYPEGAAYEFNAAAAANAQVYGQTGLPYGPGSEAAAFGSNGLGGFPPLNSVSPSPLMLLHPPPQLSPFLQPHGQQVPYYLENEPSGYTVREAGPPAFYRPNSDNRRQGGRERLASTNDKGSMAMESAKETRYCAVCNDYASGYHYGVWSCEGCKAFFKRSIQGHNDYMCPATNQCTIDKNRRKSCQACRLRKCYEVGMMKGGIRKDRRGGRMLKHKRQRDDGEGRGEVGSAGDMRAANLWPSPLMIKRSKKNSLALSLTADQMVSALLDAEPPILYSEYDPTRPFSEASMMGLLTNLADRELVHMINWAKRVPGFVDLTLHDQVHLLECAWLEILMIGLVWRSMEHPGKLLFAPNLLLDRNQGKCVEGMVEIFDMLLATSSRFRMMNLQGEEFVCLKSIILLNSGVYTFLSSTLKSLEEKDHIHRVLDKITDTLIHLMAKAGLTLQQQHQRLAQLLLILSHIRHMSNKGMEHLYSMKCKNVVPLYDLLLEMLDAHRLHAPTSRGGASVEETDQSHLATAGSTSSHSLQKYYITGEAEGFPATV

[33] = cells
[34] = system: Staphylococcus aureus; assay: Inhibitors of Bacterial Quorum Sensing Structure Activity Relationship (SAR) Analysis: Dose Response Assay. [Related pubchem assays: 700, 527 ]; type: functional, organism-based
[35] = inhibitors of Bluetongue virus cytopathic effect, confirmation, arbovirus, BSR cells (AID 1250); type: functional;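 further: protection from viral cytopathic effect measured as cell viability by ATP luminescence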
[36] = target: Peroxisome proliferator-activated receptor gamma/Nuclear receptor coactivator 2 (Homo sapiens, UniProt P37231); type: functional;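 further: agonist potency for raising coactivator recruitment to the receptor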
[37] = target: Peroxisome proliferator-activated receptor gamma/Nuclear receptor coactivator 1 (Homo sapiens, UniProt P37231); type: functional;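 further: agonist potency as compounds enhance coactivator SRC-1 recruitment to PPARgamma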
[38] = target: Peroxisome proliferator-activated receptor gamma/Nuclear receptor coactivator 3 (Homo sapiens, UniProt P37231); type: functional;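 further: agonist potency for raising coactivator recruitment to the receptor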
[39] = target: Transitional endoplasmic reticulum ATPase (Homo sapiens, UniProt P55072, C522A); assay: C522A mutant p97 ATPase inhibitors, dose response, counter-screen for p97 inhibitor project, biochemical, luminescence (AID 1544)
[40] = target: Transitional endoplasmic reticulum ATPase (Homo sapiens, UniProt P55072); assay: p97 ATPase inhibitors, dose response, biochemical (AID 1534)
[41] = Luminescence Cell-Based Dose Confirmation HTS to Identify Inhibitors of Polyadenylation.; type: functional
[42] = target: Neuropeptide Y receptor type 1 (Homo sapiens, UniProt P25929); type: functional;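 further: HEK293 cells with a CNG channel challenged with NPY then isoproterenol; potency as antagonist that reverses NPY suppression of cAMP signal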
[43] = target: Neuropeptide Y receptor type 2 (Homo sapiens, UniProt P49146); type: functional, cell-based;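 further: HEK293 cells expressing the receptor and a CNG channel; stimulus was NPY near EC95 followed by isoproterenol to raise cAMP; antagonist potency measured as restoring cAMP signal that NPY suppresses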
[44] = target: T5, Mannose-6-phosphate isomerase (Homo sapiens, UniProt P34949); assay: inhibitors of human PMI, primary screen, biochemical, fluorescence intensity, coupled assay (AID 1209)
T5 sequence (P34949 whole entry): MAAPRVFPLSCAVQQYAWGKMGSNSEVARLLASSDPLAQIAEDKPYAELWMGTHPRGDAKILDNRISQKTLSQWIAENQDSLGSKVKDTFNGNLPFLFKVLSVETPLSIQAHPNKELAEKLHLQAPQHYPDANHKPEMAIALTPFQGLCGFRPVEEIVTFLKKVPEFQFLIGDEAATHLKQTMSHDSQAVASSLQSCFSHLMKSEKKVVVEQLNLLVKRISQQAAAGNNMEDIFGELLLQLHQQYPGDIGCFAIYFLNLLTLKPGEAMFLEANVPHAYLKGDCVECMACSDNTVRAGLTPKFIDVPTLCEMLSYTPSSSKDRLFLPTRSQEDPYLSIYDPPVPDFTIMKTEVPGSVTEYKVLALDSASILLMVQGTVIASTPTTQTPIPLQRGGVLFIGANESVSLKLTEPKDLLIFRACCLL

[45] = target: Aryl hydrocarbon receptor (Homo sapiens, UniProt P35869); assay: Luminescence-based cell-based high throughput dose response assay for activators of the Aryl Hydrocarbon Receptor (AHR). [Related pubchem assays: 2796 (Primary screen (AHR activators in singlicate)), 2845 (Confirmation screen (AHR activators in triplicate)), 434939 (Counterscreen (PXR activators in triplicate)), 2804 (Summary (AHR activators))]; type: ADME

T1 sequence (P98170 whole entry): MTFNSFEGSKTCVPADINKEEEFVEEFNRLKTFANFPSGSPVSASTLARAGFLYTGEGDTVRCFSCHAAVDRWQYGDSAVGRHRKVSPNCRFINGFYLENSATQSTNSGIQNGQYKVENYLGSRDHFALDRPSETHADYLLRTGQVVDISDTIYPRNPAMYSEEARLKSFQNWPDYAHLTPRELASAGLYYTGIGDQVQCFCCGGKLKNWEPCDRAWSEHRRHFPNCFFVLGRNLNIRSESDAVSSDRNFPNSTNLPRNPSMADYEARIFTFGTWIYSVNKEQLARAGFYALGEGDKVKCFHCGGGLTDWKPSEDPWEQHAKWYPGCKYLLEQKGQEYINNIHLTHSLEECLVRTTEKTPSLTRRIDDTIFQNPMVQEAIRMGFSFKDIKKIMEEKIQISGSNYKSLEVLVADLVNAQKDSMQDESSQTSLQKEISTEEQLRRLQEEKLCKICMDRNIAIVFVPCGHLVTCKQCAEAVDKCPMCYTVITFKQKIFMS
Cyclin-dependent kinase 5/CDK5 activator 1, sequence (Q00535 whole entry): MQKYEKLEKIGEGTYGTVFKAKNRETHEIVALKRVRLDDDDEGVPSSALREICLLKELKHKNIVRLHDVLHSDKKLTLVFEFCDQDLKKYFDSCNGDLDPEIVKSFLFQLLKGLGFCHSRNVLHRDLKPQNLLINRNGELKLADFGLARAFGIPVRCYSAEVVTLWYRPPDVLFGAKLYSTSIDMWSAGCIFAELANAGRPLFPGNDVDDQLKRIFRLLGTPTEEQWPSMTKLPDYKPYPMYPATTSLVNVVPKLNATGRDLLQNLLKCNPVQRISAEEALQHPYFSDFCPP
Cyclin-dependent kinase 5/CDK5 activator 1, sequence (Q15078 whole entry, further chain): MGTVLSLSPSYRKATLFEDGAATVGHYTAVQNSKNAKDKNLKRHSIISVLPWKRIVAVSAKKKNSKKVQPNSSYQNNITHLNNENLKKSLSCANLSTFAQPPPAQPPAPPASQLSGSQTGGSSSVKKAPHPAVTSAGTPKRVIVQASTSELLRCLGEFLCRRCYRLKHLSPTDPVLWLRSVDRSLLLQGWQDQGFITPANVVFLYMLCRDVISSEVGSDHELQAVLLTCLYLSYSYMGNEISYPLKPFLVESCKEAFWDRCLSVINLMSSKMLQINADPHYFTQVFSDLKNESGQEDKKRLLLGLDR
Transitional endoplasmic reticulum ATPase (Homo sapiens, UniProt P55072, C522A), sequence (P55072 2-806 C522A limits assumed): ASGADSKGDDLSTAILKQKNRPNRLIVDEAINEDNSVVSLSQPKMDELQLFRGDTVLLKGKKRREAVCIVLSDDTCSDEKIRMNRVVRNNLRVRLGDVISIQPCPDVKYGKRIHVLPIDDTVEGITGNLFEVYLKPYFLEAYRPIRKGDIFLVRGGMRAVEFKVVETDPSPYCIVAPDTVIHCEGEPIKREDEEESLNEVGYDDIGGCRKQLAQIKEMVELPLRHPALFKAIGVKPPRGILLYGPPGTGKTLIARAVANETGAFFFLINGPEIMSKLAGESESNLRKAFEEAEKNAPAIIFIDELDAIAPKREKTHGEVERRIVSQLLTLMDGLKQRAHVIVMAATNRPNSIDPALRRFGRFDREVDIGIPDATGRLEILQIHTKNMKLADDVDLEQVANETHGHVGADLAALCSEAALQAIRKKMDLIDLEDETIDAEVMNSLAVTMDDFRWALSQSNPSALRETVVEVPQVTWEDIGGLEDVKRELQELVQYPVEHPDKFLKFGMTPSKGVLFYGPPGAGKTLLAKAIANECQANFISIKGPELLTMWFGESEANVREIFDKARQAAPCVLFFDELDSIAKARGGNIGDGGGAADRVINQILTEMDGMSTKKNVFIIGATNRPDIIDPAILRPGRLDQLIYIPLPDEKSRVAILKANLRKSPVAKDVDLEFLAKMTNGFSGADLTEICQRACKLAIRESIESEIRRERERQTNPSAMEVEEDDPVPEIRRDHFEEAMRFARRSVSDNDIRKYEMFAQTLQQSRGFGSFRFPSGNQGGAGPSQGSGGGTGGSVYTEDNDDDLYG
Bcl-2-like protein 1, sequence (Q07817 whole entry, the tested form may be a part): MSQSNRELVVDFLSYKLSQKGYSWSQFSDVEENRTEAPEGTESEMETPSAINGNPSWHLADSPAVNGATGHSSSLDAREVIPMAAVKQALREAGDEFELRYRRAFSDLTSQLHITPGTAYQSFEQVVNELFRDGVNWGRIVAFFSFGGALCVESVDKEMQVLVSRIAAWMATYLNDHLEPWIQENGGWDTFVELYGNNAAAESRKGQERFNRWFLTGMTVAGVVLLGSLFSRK
Neuropeptide Y receptor type 2, sequence (P49146 whole entry): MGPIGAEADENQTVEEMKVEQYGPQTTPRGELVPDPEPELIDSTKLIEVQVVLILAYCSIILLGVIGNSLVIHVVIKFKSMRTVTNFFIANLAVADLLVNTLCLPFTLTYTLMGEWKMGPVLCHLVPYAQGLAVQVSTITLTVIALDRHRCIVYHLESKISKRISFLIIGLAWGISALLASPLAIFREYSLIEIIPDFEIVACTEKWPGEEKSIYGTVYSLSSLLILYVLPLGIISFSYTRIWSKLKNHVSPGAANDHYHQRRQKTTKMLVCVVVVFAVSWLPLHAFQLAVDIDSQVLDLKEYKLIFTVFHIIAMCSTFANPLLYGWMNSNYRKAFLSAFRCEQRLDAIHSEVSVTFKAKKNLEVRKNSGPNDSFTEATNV
Peroxisome proliferator-activated receptor gamma/Nuclear receptor coactivator 3, sequence (P37231 whole entry): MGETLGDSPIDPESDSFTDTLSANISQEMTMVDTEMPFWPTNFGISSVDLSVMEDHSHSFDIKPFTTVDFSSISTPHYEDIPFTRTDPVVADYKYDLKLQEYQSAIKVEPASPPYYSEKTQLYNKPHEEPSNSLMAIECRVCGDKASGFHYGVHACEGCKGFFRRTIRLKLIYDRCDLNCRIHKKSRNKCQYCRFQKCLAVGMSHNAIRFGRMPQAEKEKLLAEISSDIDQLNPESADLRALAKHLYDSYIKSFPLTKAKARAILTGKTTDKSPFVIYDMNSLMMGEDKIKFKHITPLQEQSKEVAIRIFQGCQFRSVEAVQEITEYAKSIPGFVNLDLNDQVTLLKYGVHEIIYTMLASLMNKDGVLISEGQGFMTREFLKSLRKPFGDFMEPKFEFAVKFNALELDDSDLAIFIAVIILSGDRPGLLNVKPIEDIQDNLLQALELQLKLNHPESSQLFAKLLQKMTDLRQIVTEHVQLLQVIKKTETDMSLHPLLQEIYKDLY
Peroxisome proliferator-activated receptor gamma/Nuclear receptor coactivator 3, sequence (Q9Y6Q9 whole entry, further chain): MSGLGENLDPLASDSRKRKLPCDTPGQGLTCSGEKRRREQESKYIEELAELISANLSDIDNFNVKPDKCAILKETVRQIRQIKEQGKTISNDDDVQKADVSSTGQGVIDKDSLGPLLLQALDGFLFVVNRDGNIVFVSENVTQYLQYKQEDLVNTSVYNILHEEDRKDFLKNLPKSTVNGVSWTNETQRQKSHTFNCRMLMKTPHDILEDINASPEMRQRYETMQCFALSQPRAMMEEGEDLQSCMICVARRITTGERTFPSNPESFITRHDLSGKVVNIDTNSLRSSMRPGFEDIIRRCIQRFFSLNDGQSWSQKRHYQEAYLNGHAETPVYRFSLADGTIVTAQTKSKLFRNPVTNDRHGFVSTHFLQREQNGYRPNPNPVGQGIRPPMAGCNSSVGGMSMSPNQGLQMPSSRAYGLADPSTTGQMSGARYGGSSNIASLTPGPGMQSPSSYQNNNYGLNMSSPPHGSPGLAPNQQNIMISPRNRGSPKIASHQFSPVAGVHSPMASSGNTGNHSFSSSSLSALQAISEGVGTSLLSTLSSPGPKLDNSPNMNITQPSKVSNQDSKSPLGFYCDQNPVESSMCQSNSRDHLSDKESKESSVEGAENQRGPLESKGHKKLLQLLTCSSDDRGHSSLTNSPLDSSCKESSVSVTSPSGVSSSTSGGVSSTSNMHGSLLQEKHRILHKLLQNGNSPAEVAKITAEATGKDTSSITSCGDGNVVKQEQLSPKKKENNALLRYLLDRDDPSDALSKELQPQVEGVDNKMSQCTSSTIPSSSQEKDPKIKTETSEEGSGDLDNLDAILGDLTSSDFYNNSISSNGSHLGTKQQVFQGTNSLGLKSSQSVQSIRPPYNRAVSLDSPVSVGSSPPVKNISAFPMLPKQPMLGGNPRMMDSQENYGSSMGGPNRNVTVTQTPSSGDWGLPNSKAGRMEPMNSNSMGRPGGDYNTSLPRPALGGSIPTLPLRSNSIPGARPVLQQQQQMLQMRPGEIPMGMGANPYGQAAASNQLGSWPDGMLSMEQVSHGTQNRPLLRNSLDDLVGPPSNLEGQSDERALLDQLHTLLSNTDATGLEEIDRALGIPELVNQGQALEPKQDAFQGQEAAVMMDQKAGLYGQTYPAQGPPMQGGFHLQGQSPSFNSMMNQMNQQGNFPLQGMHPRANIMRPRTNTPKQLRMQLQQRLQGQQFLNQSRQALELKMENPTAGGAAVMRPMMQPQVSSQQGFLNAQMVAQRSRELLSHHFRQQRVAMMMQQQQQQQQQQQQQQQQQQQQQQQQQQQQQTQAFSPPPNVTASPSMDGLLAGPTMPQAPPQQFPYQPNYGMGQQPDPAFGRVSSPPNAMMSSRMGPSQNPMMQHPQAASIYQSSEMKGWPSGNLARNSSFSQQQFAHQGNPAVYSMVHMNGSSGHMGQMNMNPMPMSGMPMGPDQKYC
Estrogen receptor beta, sequence (Q92731 whole entry): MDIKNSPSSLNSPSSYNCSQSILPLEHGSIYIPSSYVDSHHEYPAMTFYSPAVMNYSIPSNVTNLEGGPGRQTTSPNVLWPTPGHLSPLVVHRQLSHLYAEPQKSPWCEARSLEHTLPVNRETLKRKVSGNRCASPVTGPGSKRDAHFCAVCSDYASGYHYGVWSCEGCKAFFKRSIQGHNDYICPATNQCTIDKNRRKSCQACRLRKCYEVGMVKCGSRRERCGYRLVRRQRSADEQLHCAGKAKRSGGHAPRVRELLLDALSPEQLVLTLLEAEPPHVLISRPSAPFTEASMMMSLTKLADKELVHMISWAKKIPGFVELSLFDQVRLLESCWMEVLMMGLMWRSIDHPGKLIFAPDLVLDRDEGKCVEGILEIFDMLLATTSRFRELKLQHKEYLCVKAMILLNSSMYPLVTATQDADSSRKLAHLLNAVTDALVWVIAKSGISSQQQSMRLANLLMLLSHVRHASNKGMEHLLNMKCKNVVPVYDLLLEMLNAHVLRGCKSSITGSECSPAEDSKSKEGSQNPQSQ

## CSc1nc(N(CCO)CCO)c2sc3nc(-c4ccco4)c4c(c3c2n1)CCC4
[1]
  EC50: 12.6 µM (active)
[2]
  EC50: 5.95 µM (active)
[3]
  IC50: > 50 µM (not active)
[4]
  IC50: > 10 µM (not active)
[5]
  IC50: > 20 µM (inactive)
[6]
  IC50: 57.3 µM (inconclusive)
[7]
  CC50: > 40 µM (active)
[8]
  IC50: > 34.6 µM (active)

## COc1ccc(CC(=O)Oc2cc(C)nc(O)c2[N+](=O)[O-])cc1
[9]
  IC50: > 100 µM (inactive)
[10]
  IC50: > 100 µM (not active)

## COc1cccc(C(=O)OCC(=O)Nc2sc3c(c2C(N)=O)CCC3)c1O
[11]
  IC50: 50.2 µM (not active)
[12]
  IC50: > 109 µM (not active)
[13]
  IC50: 3.73 µM (active)
[14]
  AC50: 17.7 µM (active)

## OCCCNc1cc(-c2ccnc(Nc3cccc(Cl)c3)n2)ccn1
[15]
  EC50: 0.269 µM (inconclusive)
[16]
  EC50: 0.074 µM (active)
[17]
  EC50: 0.076 µM (active)
[18]
  EC50: < 0.1 µM (active)
[19]
  CC50: 0.05 µM (active)
[20]
  EC50: < 0.1 µM (active)
[21]
  EC50: 0.666 µM (active)
[22]
  CC50: < 0.08 µM (active)
[23]
  EC50: 0.182 µM (active)
[24]
  IC50: < 0.16 µM (active)
[25]
  AC50: 0.377 µM (active)
[26]
  IC50: 35.3 µM (inactive)
[27]
  IC50: > 25 µM (active)
[28]
  AC50: 0.013 µM (active)
[29]
  AC50: < 0.26 µM (active)
[30]
  AC50: 0.375 µM (active)

## COc1ccc(Oc2c(Cl)cnn(-c3ccc(C(C)C)cc3)c2=O)cc1
[31]
  IC50: 3.1 µM (active)

## COc1ccc(-c2nnc(SCC(=O)c3cc(C)n(Cc4cccs4)c3C)o2)cc1
[32]
  EC50: 7.51 µM (active)

## O=C1c2ccccc2C(Nc2cccnc2)N1Cc1ccc2c(c1)OCO2 (stereo not given)
[33]
  IC50: 21.6 µM (active)

## O=C(Nc1ccc2c(c1)OCO2)C(c1ccccc1)N1CCC(Cc2ccccc2)CC1 (stereo not given)
[34]
  IC50: 0.802 µM (active)

## COc1ccc2oc3cc(C)[n+]([O-])c(-c4ccc(C)cc4)c3c2c1
[35]
  IC50: 23 µM (active)

## N#Cc1c(NC(=O)c2ccccc2Cl)n(Cc2ccccc2)c2nc3ccccc3nc12
[36]
  EC50: > 26.5 µM (not active)
[37]
  EC50: > 79.4 µM (not active)
[38]
  EC50: 9.38 µM (active)
[39]
  IC50: > 50 µM (not active)
[40]
  IC50: > 50 µM (not active)

## O=C(NCCC1=CCCCC1)c1c(O)nc2ccccn2c1=O
[41]
  EC50: > 120 µM (not active)

## O=C(COc1ccccc1CNCc1ccccc1)Nc1ccccc1
[42]
  IC50: 5.16 µM (active)
[43]
  IC50: 9.67 µM (active)

## CC(C)c1ccc(N2C(=O)CC(Sc3nc[nH]n3)C2=O)cc1 (stereo not given)
[44]
  IC50: > 50 µM (not active)

## NNc1nc(O)c2c3c(sc2n1)-c1ccccc1CC3
[45]
  EC50: 0.373 µM (active)
